# According to ChEMBL document CHEMBL3745685, “An appraisal on recent medicinal perspective of curcumin degradant: Dehydrozingerone (DZG)” (Bioorg Med Chem, 2016):
# Tests used:
# Spilarctia obliqua = test: Insecticidal activity against third-instar larval stage of Spilosoma obliqua Walker assessed as growth inhibition after 24 hrs by leaf disc method; type: functional, organism-based
# OVCAR-8 = test: Resistance factor, ratio of IC50 for human multidrug resistant NCI/ADR-RES cells to IC50 for human OVCAR8 cells; type: functional
# Raji [1] = test: Cytotoxicity against human Raji cells expressing EBV-EA assessed as inhibition of TPA-induced EBV-EA activation after 48 hrs by trypan blue staining based immunofluorescence method relative to TPA; type: functional, cell-based
# [2] = Antioxidant activity assessed as DPPH radical scavenging activity incubated for 20 mins by spectrophotometry analysis; type: physicochemical
# [3] = Cytotoxicity against human OVCAR8 cells assessed as reduction in cell viability by MTT assay; type: functional, cell-based; conditions: OVCAR-8
# NCI/ADR-RES = test: Cytotoxicity against human multidrug resistant NCI/ADR-RES cells overexpressing P-gp assessed as reduction in cell viability by MTT assay; type: functional, cell-based
# Raji [4] = test: Cytotoxicity against human Raji cells expressing EBV-EA assessed as inhibition of TPA-induced EBV-EA activation at 1000 molar ratio after 48 hrs by trypan blue staining based immunofluorescence method relative to TPA; type: functional
# [5] = Antiproliferative activity against human RPMI8226 cells assessed as growth inhibition at 10 uM after 48 hrs by MTT assay relative to control; type: functional; conditions: RPMI-8226, 48 h, read-out: GI
# [6] = Antiproliferative activity against human MM1S cells assessed as growth inhibition at 10 uM after 48 hrs by MTT assay relative to control; type: functional; conditions: MM1.S, read-out: GI
# [7] = Antiproliferative activity against human U266 cells assessed as growth inhibition at 10 uM after 48 hrs by MTT assay relative to control; type: functional; conditions: U-266, 48 h, read-out: GI
# [8] = Potency index, ratio of alpha-tocopherol IC0.2 to compound IC0.2 for antioxidant activity by DPPH assay
# Brain = test: Antioxidant activity in Wistar rat brain homogenate assessed as inhibition of Fe(II)-induced lipid peroxidation; type: functional, tissue-based
# [9] = Antioxidant activity assessed as DPPH radical scavenging activity; type: physicochemical
# [10] = Antioxidant activity assessed as ABTS free radical scavenging activity; type: physicochemical
# Raji [11] = test: Cytotoxicity against human Raji cells expressing EBV-EA assessed as inhibition of TPA-induced EBV-EA activation at 100 molar ratio after 48 hrs by trypan blue staining based immunofluorescence method relative to TPA; type: functional
# Aspergillus flavus [12] = test: Fungicidal activity against Aspergillus flavus MTCC 277 after 5 to 7 days by agar well diffusion method; type: functional
# Rhizoctonia solani = test: Antifungal activity against Rhizoctonia solani Kuhn assessed as growth inhibition after 2 to 3 days by poisoned food method; type: functional, organism-based
# Aspergillus niger [13] = test: Fungicidal activity against Aspergillus niger MTCC 218 after 5 to 7 days by agar well diffusion method; type: functional
# Aspergillus ochraceus [14] = test: Fungicidal activity against Aspergillus ochraceus MTCC 4643 after 5 to 7 days by agar well diffusion method; type: functional
# Penicillium chrysogenum [15] = test: Antifungal activity against Penicillium chrysogenum MTCC 616 assessed as growth inhibition after 5 to 7 days by broth dilution method; type: functional
# Fusarium oxysporum [16] = test: Fungicidal activity against Fusarium oxysporum MTCC 1755 after 5 to 7 days by agar well diffusion method; type: functional
# Aspergillus niger [17] = test: Antifungal activity against Aspergillus niger MTCC 218 assessed as growth inhibition after 5 to 7 days by broth dilution method; type: functional
# Aspergillus ochraceus [18] = test: Antifungal activity against Aspergillus ochraceus MTCC 4643 assessed as growth inhibition after 5 to 7 days by broth dilution method; type: functional
# Aspergillus oryzae [19] = test: Antifungal activity against Aspergillus oryzae MTCC 262 assessed as growth inhibition after 5 to 7 days by broth dilution method; type: functional
# Penicillium chrysogenum [20] = test: Fungicidal activity against Penicillium chrysogenum MTCC 616 after 5 to 7 days by agar well diffusion method; type: functional
# Aspergillus flavus [21] = test: Antifungal activity against Aspergillus flavus MTCC 277 assessed as growth inhibition after 5 to 7 days by broth dilution method; type: functional
# Fusarium oxysporum [22] = test: Antifungal activity against Fusarium oxysporum MTCC 1755 assessed as growth inhibition after 5 to 7 days by broth dilution method; type: functional
# Aspergillus oryzae [23] = test: Fungicidal activity against Aspergillus oryzae MTCC 262 after 5 to 7 days by agar well diffusion method; type: functional
# Raji [24] = test: Cytotoxicity against human Raji cells expressing EBV-EA assessed as inhibition of TPA-induced EBV-EA activation at 38 molar ratio after 48 hrs by trypan blue staining based immunofluorescence method relative to TPA; type: functional
# Raji [25] = test: Cytotoxicity against human Raji cells expressing EBV-EA assessed as inhibition of TPA-induced EBV-EA activation at 500 molar ratio after 48 hrs by trypan blue staining based immunofluorescence method relative to TPA; type: functional
# Rattus norvegicus = test: Antiinflammatory activity in rat assessed as inhibition of carrageenan-induced paw edema relative to control; type: functional
# Mus musculus = test: Analgesic activity in albino mouse assessed as inhibition of acetic acid-induced writhing response at 1 mmol/kg relative to control; type: functional
# Raji [26] = test: Cytotoxicity against human Raji cells expressing EBV-EA assessed as inhibition of TPA-induced EBV-EA activation at 10 molar ratio after 48 hrs by trypan blue staining based immunofluorescence method relative to TPA; type: functional
# [27] = Potency index, ratio of ascorbic acid IC0.2 to compound IC0.2 for antioxidant activity by DPPH assay
compound,measurement,setting,value
CCCCC/C=C/C(=O)/C=C/c1ccc(O)c(OC)c1,EC50,Spilarctia obliqua,3550 µg/mL
COc1ccc(/C=C/C(=O)/C=C/c2nc3cc(C)ccc3n2C)cc1O,Ratio IC50,OVCAR-8,1.7
COc1ccc(/C=C/C(C)=O)cc1OC,IC50,Raji [1],107 molar ratio
same,IC50,[2],20000 µM
COc1cc(/C=C/C(=O)/C=C/c2nc3c(C)cccc3n2C)ccc1O,IC50,[3],0.7 µM
same,IC50,NCI/ADR-RES,23.2 µM
same,Ratio IC50,OVCAR-8,33.1
COc1cc(/C=C/C(C)=O)ccc1OCC=C(C)C,inhibition (INH),Raji [4],100%
COc1cc(/C=C/C(=O)/C=C/c2ccc3c(c2)C(=O)N(C2CCC(=O)NC2=O)C3=O)ccc1O (stereo not drawn),inhibition of growth at 10 µM,[5],≥ 90%
same,inhibition of growth at 10 µM,[6],≥ 90%
same,inhibition of growth at 10 µM,[7],≥ 90%
CC(=O)/C=C/c1cccc(O)c1O,Ratio,[8],2
same,IC50,"Brain; Rattus norvegicus, Wistar, Brain",6.3 µM
same,IC0.2,[9],3.2 µM
COc1cc(C(CC(C)=O)Sc2ccccc2)ccc1O (stereo not drawn),IC50,[10],6.5 µM
COc1cccc(/C=C/C(C)=O)c1O,IC50,Raji [1],50 molar ratio
COc1ccc(/C=C/C(C)=O)cc1OCC=C(C)C,inhibition (INH),Raji [11],35%
Cc1c(C)c2c(c(C)c1O)CCC(C)(C(=O)O)O2 (stereo not drawn) [TROLOX],IC50,[2],260 µM
COc1cc(/C=C/C(C)=O)ccc1OC(C)=O,IC50,[2],40000 µM
COc1cc(/C=C/C(C)=O)ccc1OC1OC(COC(C)=O)C(OC(C)=O)C(OC(C)=O)C1OC(C)=O (stereo not drawn),IC50,[2],10000 µM
COc1cc(/C=C/C(=O)C(=Cc2ccc3c(c2)C(=O)N(C2CCC(=O)NC2=O)C3=O)C(=O)/C=C/c2ccc(O)c(OC)c2)ccc1O (stereo not drawn),inhibition of growth at 10 µM,[5],≥ 90%
same,inhibition of growth at 10 µM,[6],≥ 90%
same,inhibition of growth at 10 µM,[7],≥ 90%
COc1cc(/C=C/C(C)=O)ccc1O [DEHYDROZINGERONE],MFC,Aspergillus flavus [12],880 µM
same,EC50,Rhizoctonia solani,86.5 µg/mL
same,MFC,Aspergillus niger [13],880 µM
same,MFC,Aspergillus ochraceus [14],880 µM
same,MIC,Penicillium chrysogenum [15],755 µM
same,MFC,Fusarium oxysporum [16],880 µM
same,MIC,Aspergillus niger [17],755 µM
same,IC50,[10],8 µM
same,IC50,Raji [1],95 molar ratio
same,MIC,Aspergillus ochraceus [18],755 µM
same,MIC,Aspergillus oryzae [19],755 µM
same,MFC,Penicillium chrysogenum [20],880 µM
same,MIC,Aspergillus flavus [21],755 µM
same,IC50,[2],300 µM
same,MIC,Fusarium oxysporum [22],755 µM
same,MFC,Aspergillus oryzae [23],880 µM
C/C=C/c1ccc(O)c(OC)c1,inhibition (INH),Raji [24],50%
COc1cc(/C=C/C(=O)/C=C/c2nc3cc(C)ccc3n2C)ccc1O,Ratio IC50,OVCAR-8,1.7
VITAMIN E,IC50,Brain,2.5 µM
same,IC0.2,[9],8.3 µM
COc1cc(/C=C/C(C)=O)ccc1OC1OC(CO)C(O)C(O)C1O (stereo not drawn),IC50,[2],7500 µM
CC(=O)C#Cc1ccccc1 [4-PHENYL-3-BUTYN-2-ONE],IC50,Raji [1],48 molar ratio
COc1cccc(/C=C/C(C)=O)c1OCC=C(C)C,inhibition (INH),Raji [25],80%
CC(C)Cc1ccc(C(C)C(=O)O)cc1 (stereo not drawn) [IBUPROFEN],inhibition (INH),Rattus norvegicus,73%
same,inhibition in vivo at 1000 µmol/kg,Mus musculus,69%
COc1cc(C(CC(C)=O)[Se]c2ccccc2)ccc1O (stereo not drawn),IC50,[10],8 µM
COc1ccc(/C=C/C(C)=O)c(OCC=C(C)C)c1,inhibition (INH),Raji [26],11%
COc1cc(/C=C/C(=O)CC(=O)/C=C/c2ccc(O)c(OC)c2)ccc1O [CURCUMIN],IC50,Raji [1],97 molar ratio
COc1cc(/C=C/C(=O)CC(=O)C(C)c2ccc(CC(C)C)cc2)ccc1O (stereo not drawn),inhibition (INH),Rattus norvegicus,76%
same,inhibition in vivo at 1000 µmol/kg,Mus musculus,59%
COc1ccc(/C=C/C(=O)/C=C/c2nc3cc(O)ccc3n2C)cc1O,Ratio IC50,OVCAR-8,1.4
CC(=O)/C=C/c1cc(O)ccc1O,Ratio,[27],5
same,IC0.2,[9],4.9 µM
O=C1O[C@H]([C@@H](O)CO)C(O)=C1O [ASCORBIC ACID],IC0.2,[9],23.7 µM
CC(=O)CCc1ccccc1 [BENZYLACETONE],IC50,Raji [1],222 molar ratio
